Measurements reported in ChEMBL document CHEMBL1201862, “PubChem BioAssay data set” (2004).
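Compound exposure: 48 hours, 5 concentrations, 96-well plates. GI50: concentration for 50% inhibition of growth.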 The source made the active and inactive calls. No stated cut-off is given here; in the data, active = GI50 up to about 1.1 µM and inactive = higher.

What was measured:
Assay in all cases: inhibition of tumour cell growth, NCI panel, 48 h
HT-29 = test system: HT-29
HL-60 = test system: HL-60
EKVX = test system: EKVX
HOP-92 = test system: HOP-92
CAKI-1 = test system: CAKI-1
NCI-H226 = test system: NCI-H226
MCF7 = test system: MCF7
MDA-N = test system: MDA-N
SN12C = test system: SN12C
RPMI-8226 = test system: RPMI-8226
Malme-3M = test system: Malme-3M
PC-3 = test system: PC-3
M14 = test system: M14
MDA-MB-435 = test system: MDA-MB-435
NCI-H23 = test system: NCI-H23
OVCAR-5 = test system: OVCAR-5
NCI-H522 = test system: NCI-H522
786-0 = test system: 786-0
HOP-62 = test system: HOP-62
OVCAR-8 = test system: OVCAR-8
HCC 2998 = test system: HCC 2998
SF-539 = test system: SF-539
COLO 205 = test system: COLO 205
A498 = test system: A498
LOX IMVI = test system: LOX IMVI
SK-MEL-2 = test system: SK-MEL-2
SNB-19 = test system: SNB-19
SK-MEL-5 = test system: SK-MEL-5
HCT-15 = test system: HCT-15
T47D = test system: T47D
UACC-62 = test system: UACC-62
MOLT-4 = test system: MOLT-4
SF-295 = test system: SF-295
NCI-H460 = test system: NCI-H460
SK-OV-3 = test system: SK-OV-3
TK-10 = test system: TK-10
K562 = test system: K562
U-251 = test system: U-251
HCT-116 = test system: HCT-116
SW-620 = test system: SW-620
SNB-75 = test system: SNB-75
IGROV-1 = test system: IGROV-1
DU-145 = test system: DU-145
SK-MEL-28 = test system: SK-MEL-28
CCRF-CEM = test system: CCRF-CEM
MDA-MB-231 = test system: MDA-MB-231
SF-268 = test system: SF-268
ACHN = test system: ACHN
UO-31 = test system: UO-31
RXF 393 = test system: RXF 393
NCI/ADR-RES = test system: NCI/ADR-RES
UACC-257 = test system: UACC-257
A549 = test system: A549
OVCAR-3 = test system: OVCAR-3
Hs-578T = test system: Hs-578T
BT-549 = test system: BT-549
OVCAR-4 = test system: OVCAR-4
KM12 = test system: KM12

Measured: GI50

CN(C)C(C1=C(O)C(c2ccccc2)N(c2ccccc2)C1=O)N1CCOCC1 (stereo unspecified)
> 10 µM: HCT-15
inactive: HT-29 > 10 µM | HL-60 > 10 µM | EKVX > 10 µM | HOP-92 > 10 µM | CAKI-1 > 10 µM | NCI-H226 > 10 µM | MCF7 > 10 µM | MDA-N > 10 µM | SN12C > 10 µM | RPMI-8226 > 10 µM | Malme-3M > 10 µM | PC-3 > 10 µM | M14 > 10 µM | MDA-MB-435 > 10 µM | NCI-H23 > 10 µM | OVCAR-5 > 10 µM | NCI-H522 > 10 µM | 786-0 > 10 µM | HOP-62 > 10 µM | OVCAR-8 > 10 µM | HCC 2998 > 10 µM | SF-539 > 10 µM | COLO 205 > 10 µM | A498 > 10 µM | LOX IMVI > 10 µM | SK-MEL-2 > 10 µM | SNB-19 > 10 µM | SK-MEL-5 > 10 µM | T47D > 10 µM | UACC-62 > 10 µM | MOLT-4 > 10 µM | SF-295 > 10 µM | NCI-H460 > 10 µM | SK-OV-3 > 10 µM | TK-10 > 10 µM | K562 > 10 µM | U-251 > 10 µM | HCT-116 > 10 µM | SW-620 > 10 µM | SNB-75 > 10 µM | IGROV-1 > 10 µM | DU-145 > 10 µM | SK-MEL-28 > 10 µM | CCRF-CEM > 10 µM | MDA-MB-231 > 10 µM | SF-268 > 10 µM | ACHN > 10 µM | UO-31 > 10 µM | RXF 393 > 10 µM | NCI/ADR-RES > 10 µM | UACC-257 > 10 µM | A549 > 10 µM | OVCAR-3 > 10 µM | Hs-578T > 10 µM | BT-549 > 10 µM | OVCAR-4 > 10 µM | KM12 > 10 µM

CC(NNC(=O)CC(=O)N(C(=O)c1ccccc1)c1ccc(Cl)cc1)c1cc2ccccc2oc1=O (stereo unspecified)
> 10 µM: HCT-15
inactive: HT-29 > 10 µM | HL-60 > 10 µM | EKVX > 10 µM | HOP-92 > 10 µM | CAKI-1 > 10 µM | NCI-H226 > 10 µM | MCF7 > 10 µM | MDA-N > 10 µM | SN12C > 10 µM | RPMI-8226 > 10 µM | Malme-3M > 10 µM | PC-3 > 10 µM | M14 > 10 µM | MDA-MB-435 > 10 µM | NCI-H23 > 10 µM | OVCAR-5 > 10 µM | NCI-H522 > 10 µM | 786-0 > 10 µM | HOP-62 > 10 µM | OVCAR-8 > 10 µM | HCC 2998 > 10 µM | SF-539 > 10 µM | COLO 205 > 10 µM | A498 > 10 µM | LOX IMVI > 10 µM | SK-MEL-2 > 10 µM | SNB-19 > 10 µM | SK-MEL-5 > 10 µM | T47D > 10 µM | UACC-62 > 10 µM | MOLT-4 > 10 µM | SF-295 > 10 µM | NCI-H460 > 10 µM | SK-OV-3 > 10 µM | TK-10 > 10 µM | K562 > 10 µM | U-251 > 10 µM | HCT-116 > 10 µM | SW-620 > 10 µM | SNB-75 > 10 µM | IGROV-1 > 10 µM | DU-145 > 10 µM | SK-MEL-28 > 10 µM | CCRF-CEM > 10 µM | MDA-MB-231 > 10 µM | SF-268 > 10 µM | ACHN > 10 µM | RXF 393 > 10 µM | NCI/ADR-RES > 10 µM | UACC-257 > 10 µM | A549 > 10 µM | OVCAR-3 > 10 µM | Hs-578T > 10 µM | BT-549 > 10 µM | OVCAR-4 > 10 µM | KM12 > 10 µM
active: UO-31 0.0995 µM
